Measurements taken from US20260274891A1, “¿ OPIOID RECEPTOR AGONIST AND USE THEREOF” (CHENGDU AODA BIOTECHNOLOGY CO., LTD., priority 2023, published 2026).
Where two headings read alike, the source gives them in different places. Bridge positions count the residues as written; N and C are the ends. Square brackets hold non-standard residues; d marks the D form. Side chains are listed from the residue outwards. Peptide text beside a SMILES is read from it. I, II: the chains in the order shown. * marks the point of attachment. X28 = NCCCC[C@H](NC(=O)[C@H](CCCCN)NC(=O)C1(N)CCN(*)CC1)C(=O)O; X12 = CCOc1ccc(C[C@@H](NC(=O)[C@H](N)Cc2ccccc2)C(=O)*)cc1; X5 = NCCCC[C@@H](NC(=O)CNC(=O)C1(N)CCN(*)CC1)C(N)=O; Piperidin1yl(4-NH2,4-COOH) = NC1(C(=O)O)CCN(*)CC1; Piperidinyl(4-NH2,4-CONH2) = NC(=O)C1(N)CCN(*)CC1; X10 = NCCCC[C@@H](NC(=O)C1(N)CCN(*)CC1)C(=O)O; X1 = NCCCC[C@@H](NC(=O)C1(N)CCN(*)CC1)C(N)=O; X4 = NCCCC[C@H](NC(=O)C1(N)CCN(*)CC1)C(=O)O; X6 = NCCCC[C@H](NC(=O)C1(N)CCN(*)CC1)C(N)=O; dAla(cPr) = N[C@H](CC1CC1)C(=O)O; Trifluoroethyl = FC(F)(F)C*; Api = NC1(C(=O)O)CCNCC1; iPr = CC(C)*

Target: T1, human κ opioid receptor (OPRK1) (Homo sapiens, UniProt P41145)
T1 construct: expressed in transfected cells; host or cells: CHO-K1
Assay: Determination of activities of κ receptor agonists: inhibition of forskolin-stimulated cAMP release (HTRF) in stably transfected CHO-K1 cells
Format: cell-based
Settings: for Relative Activity %: relative to Difelikefalin = 100.0
From the text: Gi-coupled human κ opioid receptor (OPRK1), upon stimulation with its specific opioid receptor agonists, can inhibit the intracellular adenylate cyclase pathway, and decrease cAMP levels. Forskolin can stimulate cAMP release in cell lines highly expressing opioid receptors. By stimulating cell lines stably transfected with opioid receptors, the inhibitory effect of a test compound on forskolin-stimulated cAMP release can be measured to determine the activity of the compound. The relative light units (RLU) from the cells after stimulation with different doses were measured via the homogeneous time-resolved fluorescence technique (HTRF), and the EC50 value of the agonist was subsequently calculated. This activity determination method is a currently commonly used method for determining the activities of opioid receptor agonists at home and abroad.
A CHO-K1 cell line stably expressing opioid receptors was used. Stably transfected cells were stimulated with various concentrations of agonists (under the stimulation of a certain concentration of forskolin). The relative light units from the cells after stimulation with different doses were measured, from which the EC50 value of the agonist was subsequently obtained by calculation.

T1 sequence (P41145 whole entry): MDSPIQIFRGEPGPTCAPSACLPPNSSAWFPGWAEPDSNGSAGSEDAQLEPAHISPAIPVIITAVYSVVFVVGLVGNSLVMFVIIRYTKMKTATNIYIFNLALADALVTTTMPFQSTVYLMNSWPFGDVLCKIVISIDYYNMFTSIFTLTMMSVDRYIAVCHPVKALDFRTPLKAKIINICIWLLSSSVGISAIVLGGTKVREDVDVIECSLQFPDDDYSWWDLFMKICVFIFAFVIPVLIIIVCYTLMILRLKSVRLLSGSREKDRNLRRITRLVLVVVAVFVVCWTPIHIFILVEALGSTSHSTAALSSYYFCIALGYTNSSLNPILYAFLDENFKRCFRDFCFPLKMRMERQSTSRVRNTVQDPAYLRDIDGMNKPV

With `CCOc1ccc(C[C@@H](NC(=O)[C@H](N)Cc2ccccc2)C(=O)N[C@H](CC(C)C)C(=O)N[C@H](CCCCN)C(=O)N2CCC(N)(C(=O)N[C@@H](CCCCN)C(=O)N[C@@H](CCCCN)C(=O)N[C@@H](CCCCN)C(=O)N[C@@H](CCCCN)C(=O)N[C@@H](CCCCN)C(=O)N[C@@H](CCCCN)C(=O)O)CC2)cc1` [Compound 14, D-Phe-D-Tyr(Et)-D-Leu-D-Lys-4-aminopiperidine-4-carboxamide-Lys-Lys-Lys-Lys-Lys-Lys-OH] (H-[Api]([dK-dL-X12])KKKKKK-OH; N-terminus assumed) the EC50 was 0.0655 nM and the “Relative Activity %” value was 927.0%.

With `CC(C)C[C@@H](NC(=O)[C@@H](Cc1ccc(OC(C)C)cc1)NC(=O)[C@H](N)Cc1ccccc1)C(=O)N[C@H](CCCCN)C(=O)N1CCC(N)(C(=O)O)CC1` [Compound 98, D-Phe-D-Tyr(Ipr)-D-Leu-D-Lys-4-aminopiperidine-4-carboxamide-OH] (H-[dF][dY](iPr)[dL][dK]-{Piperidin1yl(4-NH2,4-COOH)}; N-terminus assumed) the EC50 was 0.145 nM and the “Relative Activity %” value was 418.2%.

For `Cc1ccc(C[C@@H](NC(=O)[C@H](N)Cc2ccccc2)C(=O)N[C@H](CC(C)C)C(=O)N[C@H](CCCCN)C(=O)N2CCC(N)(C(=O)N[C@@H](CCCCN)C(N)=O)CC2)cc1` [Compound 127, D-Phe-D-Phe(4-Me)-D-Leu-D-Lys-4-aminopiperidine-4-carboxamide-Lys-NH2], the EC50 was 0.157 nM and the “Relative Activity %” value was 385.8%.

`CCOc1ccc(C[C@@H](NC(=O)[C@H](N)Cc2ccccc2)C(=O)N[C@H](CC(C)C)C(=O)N[C@H](CCCCN)C(=O)N2CCC(N)(C(=O)N[C@H](CCCCN)C(=O)O)CC2)cc1` [Compound 16, D-Phe-D-Tyr(Et)-D-Leu-D-Lys-4-aminopiperidine-4-carboxamide-D-Lys-OH] (H-[dF][dY](Et)[dL][dK]-X10; N-terminus assumed) was tested, and the EC50 was 0.0431 nM and the “Relative Activity %” value was 1408.8%.

With `COc1ccc(C[C@@H](NC(=O)[C@H](N)Cc2ccccc2)C(=O)N[C@H](CC(C)C)C(=O)N[C@H](CCCCN)C(=O)N2CCC(N)(C(=O)N[C@@H](CCCCN)C(N)=O)CC2)cc1` [Compound 87, D-Phe-D-Tyr(Me)-D-Leu-D-Lys-4-aminopiperidine-4-carboxamide-Lys-NH2] (H-[dF][dY](Me)[dL][dK]-X6; N-terminus assumed) the EC50 was 0.0422 nM and the “Relative Activity %” value was 1438.9%.

In the case of `CCOc1ccc(C[C@@H](NC(=O)[C@H](N)Cc2ccccc2)C(=O)N[C@H](CC(C)C)C(=O)N[C@H](CCCCN)C(=O)N2CCC(N)(C(=O)NCC(=O)NCC(=O)N[C@H](CCCCN)C(=O)O)CC2)cc1` [Compound 54, D-Phe-D-Tyr(Et)-D-Leu-D-Lys-4-aminopiperidine-4-carboxamide-Gly-Gly-D-Lys-OH] (I: H-[Api]GG[dK]-OH / II: H-[dF][dY](Et)[dL][dK]; amide I:1-II:C; N-terminus assumed), the EC50 is reported as 0.0471 nM and the “Relative Activity %” value is reported as 1289.2%.

For `CC(C)C[C@@H](NC(=O)[C@@H](Cc1ccc(OC(C)C)cc1)NC(=O)[C@H](N)Cc1ccccc1)C(=O)N[C@H](CCCCN)C(=O)N1CCC(N)(C(=O)N[C@H](CCCCN)C(N)=O)CC1` [Compound 101, D-Phe-D-Tyr(Ipr)-D-Leu-D-Lys-4-aminopiperidine-4-carboxamide-D-Lys-NH2] (H-[dF][dY](iPr)[dL][dK]-X1; N-terminus assumed), the EC50 was 0.0728 nM and the “Relative Activity %” value was 834.1%.

For `CC(C)C[C@@H](NC(=O)[C@@H](Cc1ccc(OCC(F)(F)F)cc1)NC(=O)[C@H](N)Cc1ccccc1)C(=O)N[C@H](CCCCN)C(=O)N1CCC(N)(C(=O)N[C@H](CCCCN)C(=O)O)CC1` [Compound 96, D-Phe-D-Tyr(CH2CF3)-D-Leu-D-Lys-4-aminopiperidine-4-carboxamide-D-Lys-OH] (H-[dF][dY](Trifluoroethyl)[dL][dK]-X10; N-terminus assumed), the EC50 was 0.0494 nM and the “Relative Activity %” value was 1229.1%.

For `CCc1ccc(C[C@@H](NC(=O)[C@H](N)Cc2ccccc2)C(=O)N[C@H](CC(C)C)C(=O)N[C@H](CCCCN)C(=O)N2CCC(N)(C(=O)N[C@@H](CCCCN)C(N)=O)CC2)cc1` [Compound 131, D-Phe-D-Phe(4-Et)-D-Leu-D-Lys-4-aminopiperidine-4-carboxamide-Lys-NH2], the EC50 was 0.134 nM and the “Relative Activity %” value was 454.5%.

In the case of `CCOc1ccc(C[C@@H](NC(=O)[C@H](N)Cc2ccccc2)C(=O)N[C@H](CC(C)C)C(=O)N[C@H](CCCCN)C(=O)N2CCC(N)(C(=O)N[C@H](CCCCN)C(=O)N[C@H](CCCCN)C(=O)N[C@H](CCCCN)C(N)=O)CC2)cc1` [Compound 19, D-Phe-D-Tyr(Et)-D-Leu-D-Lys-4-aminopiperidine-4-carboxamide-D-Lys-D-Lys-D-Lys-NH2] (I: H-[Api][dK][dK][dK]-NH2 / II: H-[dF][dY](Et)[dL][dK]; amide I:1-II:C; N-terminus assumed), the EC50 is reported as 0.0479 nM and the “Relative Activity %” value is reported as 1267.6%.

`CCOc1ccc(C[C@@H](NC(=O)[C@H](N)Cc2ccccc2)C(=O)N[C@H](CC(C)C)C(=O)N[C@H](CCCCN)C(=O)N2CCC(N)(C(=O)NCC(=O)N[C@H](CCCCN)C(N)=O)CC2)cc1` [Compound 49, D-Phe-D-Tyr(Et)-D-Leu-D-Lys-4-aminopiperidine-4-carboxamide-Gly-D-Lys-NH2] (H-[dF][dY](Et)[dL][dK]-X5; N-terminus assumed) was tested, and the EC50 was 0.0445 nM and the “Relative Activity %” value was 1364.5%.

With `CC(C)C[C@@H](NC(=O)[C@@H](Cc1ccc(Cl)cc1)NC(=O)[C@H](N)Cc1ccccc1)C(=O)N[C@H](CCCCN)C(=O)N1CCC(N)(C(=O)O)CC1` [Compound 110, D-Phe-D-Phe(4-C1)-D-Leu-D-Lys-4-aminopiperidine-4-carboxamide-OH] the EC50 was 0.149 nM and the “Relative Activity %” value was 408.6%.

`CCOc1ccc(C[C@@H](NC(=O)[C@H](N)Cc2ccccc2)C(=O)N[C@H](CC(C)C)C(=O)N[C@H](CCCCN)C(=O)N2CCC(N)(C(=O)N[C@@H](CCCCN)C(=O)O)CC2)cc1` [Compound 4, D-Phe-D-Tyr(Et)-D-Leu-D-Lys-4-aminopiperidine-4-carboxamide-Lys-OH] (H-[dF][dY](Et)[dL][dK]-X4; N-terminus assumed) was tested, and the EC50 was 0.0399 nM and the “Relative Activity %” value was 1521.8%.

With `CCOc1ccc(C[C@@H](NC(=O)[C@H](N)Cc2ccccc2)C(=O)N[C@H](CC(C)C)C(=O)N[C@H](CCCCN)C(=O)N2CCC(N)(C(=O)N[C@@H](CCCCN)C(=O)N[C@@H](CCCCN)C(=O)O)CC2)cc1` [Compound 6, D-Phe-D-Tyr(Et)-D-Leu-D-Lys-4-aminopiperidine-4-carboxamide-Lys-Lys-OH] (H-[dF][dY](Et)[dL][dK]-X28; N-terminus assumed) the EC50 was 0.0402 nM and the “Relative Activity %” value was 1510.4%.

For `CC(C)C[C@@H](NC(=O)[C@@H](Cc1ccc(N)cc1)NC(=O)[C@H](N)Cc1ccccc1)C(=O)N[C@H](CCCCN)C(=O)N1CCC(N)(C(=O)N[C@H](CCCCN)C(N)=O)CC1` [Compound 141, D-Phe-D-Phe(4-NH2)-D-Leu-D-Lys-4-aminopiperidine-4-carboxamide-D-Lys-NH2], the EC50 was 0.112 nM and the “Relative Activity %” value was 543.1%.

With `CCOc1ccc(C[C@@H](NC(=O)[C@H](N)Cc2ccccc2)C(=O)N[C@H](CC(C)C)C(=O)N[C@H](CCCCN)C(=O)N2CCC(N)(C(=O)NCC(=O)NCC(=O)NCC(=O)N[C@H](CCCCN)C(=O)O)CC2)cc1` [Compound 58, D-Phe-D-Tyr(Et)-D-Leu-D-Lys-4-aminopiperidine-4-carboxamide-Gly-Gly-Gly-D-Lys-OH] (H-[Api]([dK-dL-X12])GGG[dK]-OH; N-terminus assumed) the EC50 was 0.0515 nM and the “Relative Activity %” value was 1179.0%.

With `CCOc1ccc(C[C@@H](NC(=O)[C@H](N)Cc2ccccc2)C(=O)N[C@H](CC(C)C)C(=O)N[C@H](CCCCN)C(=O)N2CCC(N)(C(=O)NCC(=O)NCC(=O)N[C@@H](CCCCN)C(N)=O)CC2)cc1` [Compound 51, D-Phe-D-Tyr(Et)-D-Leu-D-Lys-4-aminopiperidine-4-carboxamide-Gly-Gly-Lys-NH2] (I: H-[Api]GGK-NH2 / II: H-[dF][dY](Et)[dL][dK]; amide I:1-II:C; N-terminus assumed) the EC50 was 0.0477 nM and the “Relative Activity %” value was 1273.0%.

In the case of `CC(C)C[C@@H](NC(=O)[C@@H](Cc1ccc(F)cc1)NC(=O)[C@H](N)Cc1ccccc1)C(=O)N[C@H](CCCCN)C(=O)N1CCC(N)(C(=O)N[C@@H](CCCCN)C(N)=O)CC1` [Compound 105, D-Phe-D-Phe(4-F)-D-Leu-D-Lys-4-aminopiperidine-4-carboxamide-Lys-NH2], the EC50 is reported as 0.0796 nM and the “Relative Activity %” value is reported as 762.8%.

`CCOc1ccc(C[C@@H](NC(=O)[C@H](N)Cc2ccccc2)C(=O)N[C@H](CC2CC2)C(=O)N[C@H](CCCCN)C(=O)N2CCC(N)(C(N)=O)CC2)cc1` [Compound 67, D-Phe-D-Tyr(Et)-D-cyclopropylalanine-D-Lys-4-aminopiperidine-4-carboxamide-NH2] (H-[dF][dY](Et)[dAla(cPr)][dK]-{Piperidinyl(4-NH2,4-CONH2)}; N-terminus assumed) was tested, and the EC50 (CHO-K1 cell line stably expressing opioid receptors, forskolin-stimulated cAMP, HTRF, read-out: EC50) was 0.127 nM and the “Relative Activity %” value was 477.7%.

In the case of `CC(C)C[C@@H](NC(=O)[C@@H](Cc1ccc(I)cc1)NC(=O)[C@H](N)Cc1ccccc1)C(=O)N[C@H](CCCCN)C(=O)N1CCC(N)(C(N)=O)CC1` [Compound 121, D-Phe-D-Phe(4-I)-D-Leu-D-Lys-4-aminopiperidine-4-carboxamide-NH2], the EC50 is reported as 0.122 nM and the “Relative Activity %” value is reported as 496.1%.

For `CC(C)C[C@@H](NC(=O)[C@@H](Cc1ccc(I)cc1)NC(=O)[C@H](N)Cc1ccccc1)C(=O)N[C@H](CCCCN)C(=O)N1CCC(N)(C(=O)O)CC1` [Compound 122, D-Phe-D-Phe(4-I)-D-Leu-D-Lys-4-aminopiperidine-4-carboxamide-OH], the EC50 was 0.12 nM and the “Relative Activity %” value was 505.6%.
